Among the data in PubChem BioAssay (NCI) are TGI and GI50 values, retold here.

Test in all cases: NCI tumour cell line growth inhibition, 48 h
For assay [1], the system named is 786-0 renal.
Assay [2] relates to A498 renal.
For assay [3], the system named is CAKI-1 renal.
The test system of assay [4] is EKVX NSCLC.
Assay [5] deals with IGROV1 ovarian.
Assay [6] has as its system MDA-MB-231 breast.
Assay [7] relates to NCI-H522 lung.
Assay [8] has as its system NCI/ADR-RES ovarian.
In assay [9] the test system is SW-620 colon.
For assay [10], the system named is UACC-257 melanoma.

The structures appear in SMILES notation.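 96-well plates; 48 h exposure; 5 concentrations. Endpoints by linear interpolation between flanking doses. Not reached: highest tested concentration assigned. GI50: concentration for 50% inhibition of growth. The concentration for full growth arrest is given as TGI.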 A value given as a limit tells only on which side of the number the result lay.

For `O=C1C=CC(=O)N1c1ccc2c(c1)Cc1cc(NC(=O)C(F)(F)F)ccc1-2`, the TGI stood at 13 µM in assay [1]; 48.4 µM in assay [2]; 32.7 µM in assay [3]; 29.3 µM in assay [4]; 32.3 µM in assay [5]; 32.3 µM in assay [6]. For the same compound, the TGI in [7] is 11.3 µM; in assay [8], greater than 75.7 µM; in assay [9], 25.8 µM; in assay [10], 35.8 µM.

For `CC1=C([Se]CC(OC(=O)[C@@H](CSSC(C)(C)C)NC(=O)C(C)(C)C)C(=O)NCCCCCC(=O)OCc2ccccc2)C(=O)c2ccccc2C1=O` (stereo not given in full), the GI50 in assay [1] was 2.1 µM; in [2] it was 1.63 µM; in [3], 2.18 µM; in assay [4], 2.24 µM; in assay [5] it was 1.9 µM; in assay [6], 1.92 µM. Moreover, the GI50 in assay [7] is 1.69 µM; in [8] it was 3.4 µM; in assay [9], 2.31 µM. In addition, the TGI was found to be 3.66 µM in assay [1]; 4.77 µM in assay [2]; 4.52 µM in [3]; 5.41 µM in assay [4]; 3.66 µM in assay [5]; 4.23 µM in [6]. In addition, the TGI amounted to 3.21 µM in assay [7], 11.4 µM in assay [8] and 5.2 µM in [9].

Take `CC1(C)CC2=NOS3=C2C(=NO3)C1c1ccccn1` (stereo not given): the TGI in [1] was greater than 100 µM; in assay [2], greater than 100 µM; in assay [3] it was greater than 100 µM; in [4], greater than 100 µM; in assay [5] it was 84.5 µM; in assay [6], greater than 100 µM. Further, the TGI is 90.2 µM in assay [7], greater than 100 µM in assay [8], greater than 100 µM in [9] and greater than 100 µM in assay [10].

On to `N#C/C(=C\c1ccc(Cl)cc1)n1nnc2cc(F)c(F)cc21`, for which the GI50 is 1.69 µM in assay [1]; 1.28 µM in assay [2]; 1.7 µM in assay [3]; 1.67 µM in assay [4]; 1.97 µM in assay [5]; 1.85 µM in assay [6]. The GI50 in assay [7] is 1.59 µM; in [8], 2.36 µM; in assay [9] it was 1.72 µM; in assay [10] it was 2.14 µM. In addition, the TGI came out at 3.28 µM in [1]; 2.66 µM in assay [2]; 3.2 µM in assay [3]; 3.12 µM in assay [4]; 4.46 µM in assay [5]; 4.47 µM in assay [6]. Further, the TGI was found to be 3.85 µM in [7], 7.7 µM in [8], 3.46 µM in assay [9] and 5.58 µM in assay [10].

For `Cc1cc(S(=O)(=O)/N=C(\N)n2nc(C)c(C)c2C)c(SCc2ccccc2)cc1Cl`, the GI50 in assay [1] was greater than 100 µM; in assay [2], greater than 100 µM; in assay [4], 5.38 µM; in [6] it was greater than 100 µM; in [7] it was greater than 100 µM; in [8], 9.22 µM. In addition, the results for the GI50 in assay [9] and in assay [10] were 72.7 µM and 63.8 µM, respectively. The TGI in assay [1], in assay [2], in assay [4], in [6], in assay [7] and in [8] was greater than 100 µM throughout. In addition, the TGI in [9] and in [10] was greater than 100 µM in each case.

`O=C(c1cccs1)c1c(C(F)(F)F)n([O-])c2cc(C(F)(F)F)ccc2[n+]1=O`: the GI50 was 0.171 µM in assay [1]; 0.96 µM in [2]; 0.22 µM in assay [3]; 0.251 µM in assay [4]; 0.29 µM in [5]; 0.177 µM in [6]. Further, the GI50 in assay [7] is 0.294 µM; in assay [8] it was 0.216 µM; in [9], 0.14 µM; in assay [10], 0.662 µM. The TGI worked out at 0.319 µM in assay [1]; 2.6 µM in assay [2]; 0.628 µM in assay [3]; 0.625 µM in assay [4]; 0.848 µM in assay [5]; 0.345 µM in [6]. The TGI is 0.738 µM in [7], 0.585 µM in assay [8], 0.304 µM in assay [9] and 1.82 µM in assay [10].

As for `COc1cc(-c2ccc(-[n+]3nc(-c4ccc([N+](=O)[O-])cc4)nn3-c3ccc([N+](=O)[O-])cc3)c(OC)c2)ccc1-[n+]1nc(-c2ccc([N+](=O)[O-])cc2)nn1-c1ccc([N+](=O)[O-])cc1`, the GI50 in [1] was 3.45 µM; in assay [2], 2.99 µM; in assay [3] it was 15.1 µM; in [5], 0.707 µM; in assay [6], 8.6 µM; in assay [7], 0.672 µM. In addition, the GI50 was 26.9 µM in [8], 2.99 µM in assay [9] and 2.83 µM in [10]. The TGI in [1] turned out to be 23.2 µM; in assay [2], 13.9 µM; in [3] it was 48.5 µM; in assay [5], 51.7 µM; in [6], 34.7 µM; in [7], 7.71 µM. Also, the TGI in [8] is greater than 100 µM; in assay [9], 25.1 µM; in assay [10], 12 µM.

In the case of `Nc1c(C(=O)Nc2cccc3ccccc23)sc2nc3c(cc12)CCCCC3`, the GI50 was 0.443 µM in assay [1]; 0.646 µM in [2]; 1.35 µM in assay [4]; 1.9 µM in assay [5]; 1.27 µM in assay [6]; 0.724 µM in assay [7]. Also, the GI50 in assay [8] was 0.402 µM; in assay [9] it was 0.538 µM; in assay [10] it was 17.1 µM. In addition, the TGI in assay [1] is greater than 50 µM; in assay [2], 25.8 µM; in assay [4], greater than 50 µM; in assay [5] it was greater than 50 µM; in [6] it was greater than 50 µM; in [7] it was 4.7 µM. The TGI in [8], in [9] and in [10] was greater than 50 µM throughout.
